Legend:
[1] = test system: Staphylococcus aureus (SAU); experiment: paper diffusion method drug sensitivity test; type: cell-based; conditions: 30 μg/tablet paper disc (6.35 mm), LB plate, 37° C., 24 h
Method: (§1) The antimicrobial efficacy was determined by a paper diffusion method drug sensitivity test.
(§2) Experimental strains: Staphylococcus aureus (SAU), multi-resistant Staphylococcus aureus 18-206. The experimental strain was identified by Huashan Hospital Affiliated to Fudan University (Institute of Antibiotic of Fudan University).
(§3) Drug sensitive paper: The drug sensitive paper is a special drug sensitive paper with a diameter of 6.35 mm and a water absorption of 0.02 mL. The control drug was cefazolin (30 μg/tablet); the test drugs were cassic acid (30 μg/tablet), cinnamyl alcohol (30 μg/tablet) and cinnamyl alcohol cassic acid ester (30 μg/tablet).
(§4) Reagents: LB agar medium, LA broth medium, 0.5% DMSO solution.
(§5) The experimental strains were inoculated in non-selective medium and placed in air at 37° C. for 24 h. Pick a single colony that grows well and inoculate it into broth medium, incubate at 35° C.±2° C. for 6 hours, and use LA broth medium to calibrate the concentration of the bacterial solution to 0.5 Mie turbidimetric tube (1.5×10^8 CFU/mL). A bacterial suspension is obtained.
(§6) Weigh the LB dry powder, sterilize at 103.4 Kpa, 121.3° C. high-pressure steam for 15 min, and then put it in a 40° C.-50° C. water bath. Place a sterile empty plate (inner diameter 9 cm) on the surface of the ultra-clean table water table, shake and shake LB, and then pour the plate. The thickness of each plate is 3 mm to 4 mm. After the plate is cooled at room temperature, store it in the refrigerator at 2° C.-8° C. Use a sterile cotton swab to dip the bacterial solution, and evenly coat the surface of the LB plate 3 times. After inoculation of the bacterial suspension, the LB plate was dried at room temperature for 3 min to 5 min. Use sterile forceps to closely attach the antibacterial drug paper to the dish. Put the dish upside down and place it in a 37° C. incubator for 24 h. Observe the result and measure the diameter. Taking 0.5% DMSO solution as a negative control, the antibacterial activity is expressed by the diameter of the inhibition zone. The inhibition zone ≥17 mm, sensitive; the inhibition zone is 15 mm-16 mm, intermediary; the inhibition zone ≤14 mm, drug resistance.

[2] = test system: multi-resistant Staphylococcus aureus 18-206; experiment: paper diffusion method drug sensitivity test; type: cell-based; conditions: for Zone of inhibition: Multi-resistant Staphylococcus aureus 18-206, 30 μg/tablet paper disc (6.35 mm), LB plate, 37° C., 24 h; for inhibitory effect on drug-resistant bacteria (in words): multi-resistant Staphylococcus aureus 18-206, summary of Table 1
Method: as §1, §2, §3, §4, §5, §6

Compound | Zone of inhibition [1] | Zone of inhibition [2] | inhibitory effect on drug-resistant bacteria (in words) [2]
OCC=Cc1ccccc1 [Cinnamyl alcohol] | 17 mm | 0 mm | no inhibitory effect
O=C(O)c1cc(O)c2c(c1)C(=O)c1cccc(O)c1C2=O [Cassic acid] | 7 mm | 7 mm | 
Cc1nnc(SCC2=C(C(=O)O)N3C(=O)[C@@H](NC(=O)Cn4cnnn4)[C@H]3SC2)s1 [Cefazolin] | 34 mm | 22 mm | 
O=C(OC/C=C/c1ccccc1)c1cc(O)c2c(c1)C(=O)c1cccc(O)c1C2=O [Cinnamyl alcohol cassic acid ester, Cinnamyl 4,5-dihydroxy-9,10-dioxo-9,10-dihydroanthracene-2-carboxylate] | 13 mm | 15 mm | strong suppression effect

Reference: patent US10947182B1, “Cinnamyl alcohol cassic acid ester with antibacterial activity and a method of preparing the same” (SHAANXI UNIVERSITY OF SCIENCE AND TECHNOLOGY, priority 2020, dated 2021)
